Measurements published in patent US20110224079A1, “SPIROHETEROCYCLIC N-OXYAMIDES AS PESTICIDES” (SYNGENTA CROP PROTECTION LLC, priority 2008, published 2011).

What was measured:
[1] = test system: Thrips tabaci (onion thrips); test: Example B3: activity against Thrips tabaci, sprayed sunflower leaf discs (feeding/residual contact, preventive); format: in vivo; conditions: foliar, 144 h, mixed population, 6 days
Text: Activity Against Thrips tabaci (Onion Thrips)
(Mixed Population, Feeding/Residual Contact Activity, Preventive)

[2] = test system: Plutella xylostella (diamond back moth); test: Example B5: activity against Plutella xylostella, artificial diet in microtiter plate (larvicide, preventive); format: in vivo; conditions: 120 h, L2 larvae, 5 days, read-out: activity (larval mortality, antifeedant, growth regulation)
Procedure: Activity Against Plutella xylostella (Diamond Back Moth)
(Larvicide, Feeding/Residual Contact Activity, Preventive)
24-well microtiter plate (MTP) with artificial diet is treated with test solutions by pipetting. After drying, the MTP's are infested with larvae (L2)(10-15 per well). After an incubation period of 5 days, samples are checked for larval mortality, antifeedant and growth regulation.

[3] = test system: Frankliniella occidentalis (western flower thrips); test: Example B6: activity against Frankliniella occidentalis, bean leaf discs or bean plants; format: in vivo; conditions: foliar, 6 days (leaf discs) or 14 days (plants) after infestation, read-out: activity (reduction of treated population)
Procedure: Activity Against Frankliniella occidentalis (Western Flower Thrips)
Bean leaf discs on agar in petri dishes or bean plants in a spray chamber are treated with diluted test solutions. After drying leaf discs are cut and placed in plastic cups on the surface of an agar layer and infested with mixed population. 6 days (leaf discs) or 14 days (plants) after the infestation, samples are checked for reduction of treated population and compared to the non treated population.

[4] = test system: Bemisia tabaci (tobacco white fly); test: Example B7: activity against Bemisia tabaci, sprayed bean plants (larvicide, contact/feeding); format: in vivo; conditions: 504 h, bean plants with N-2 nymphs sprayed, three weeks, read-out: activity (efficacy, number of emerged adults)
Procedure, shortened: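 After a 4-day egg-laying period and 7 further days, bean plants bearing hatched N-2 nymphs were sprayed with test solutions (2 replicates). Emerged adults were counted three weeks later; efficacy was derived by comparison with untreated samples.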

[5] = test system: Aphis Craccivora (cowpea aphid); test: Example B10: activity against Aphis craccivora, pea seedling roots in test solution (systemic/feeding); format: in vivo; conditions: 144 h, roots of infested pea seedlings in test solution, 6 days
Text: (§1) Activity Against Aphis Craccivora (Cowpea Aphid)
(Mixed Population, Systemic/Feeding)

[6] = test system: Aphis Craccivora (cowpea aphid); test: Example B11: translaminar activity against Aphis craccivora on French bean leaves; format: in vivo; conditions: 120 h, upper leaf side painted, aphids on lower side, 5 days
Procedure: Translaminar Activity Against Aphis Craccivora (Cowpea Aphid)
French bean leaves (Phaseolus vulgaris) are infested with about 20 mixed age individuals on the lower leaf side using clip cages. 1 day after the infestation, the upper side of the leaves is treated with the test solution by painting. 5 days later, samples are checked for mortality.

[7] = test system: Aonidiella Aurantii (red scale); test: Example B12: activity against Aonidiella aurantii, dipped potato tubers; format: in vivo; conditions: 6-8 weeks after application, read-out: activity (number of crawlers of the next generation)
Text: Activity Against Aonidiella Aurantii (Red Scale)
Treatment of potato tubers by dipping the in the test solution. One day later, tubers are infested with about 50 crawlers. 6-8 weeks after application samples are checked for the number of crawlers of the next generation (compared to the non treated samples).

[8] = test system: Myzus persicae (green peach aphid); test: Example B17: activity against Myzus persicae on sprayed pepper plants (feeding/residual contact); format: in vivo; conditions: 144 h, infested pepper plants sprayed, 6 days
[9] = test system: Myzus persicae (green peach aphid); test: Example B13: drench activity against Myzus persicae, pea seedlings in field soil; conditions: 168 h, read-out: drench activity (mortality)
[10] = test system: Nilaparvata lugens (brown rice planthopper); test: Example B8: activity against Nilaparvata lugens, sprayed rice seedlings (larvicide, feeding/contact); conditions: in Oryza sativa, read-out: activity (mortality, growth regulation, effects on F1 generation)
[11] = test system: Myzus persicae (green peach aphid); test: Example B2: activity against Myzus persicae, pea seedling roots in test solution (systemic/feeding, curative); conditions: 144 h, read-out: activity (mortality)
[12] = test system: Myzus persicae (green peach aphid); test: Example B1: activity against Myzus persicae, sprayed sunflower leaf discs (feeding/residual contact, preventive); conditions: foliar, 144 h, read-out: activity (mortality)
[13] = test system: Tetranychus urticae (two-spotted spider mite); test: Example B4: activity against Tetranychus urticae, sprayed bean leaf discs (feeding/residual contact, preventive); conditions: foliar, 192 h, read-out: activity (egg, larval and adult mortality)
[14] = test system: Myzus persicae (green peach aphid); test: Example B15: drench activity (death rate, persistence) against Myzus persicae on pepper plants in field soil, comparison with A18; format: in vivo; conditions: for Mortality (%) xx days after application (drench, systemic action, persistence): 12.5 ppm drench, pepper plants in field soil, evaluation 7 days after infestation
Procedure: (§2) Comparison of the Insecticidal Activity and Crop Compatibility of Compounds According to the Invention with a Compound from the State of the Art (Compound No. A18 Described on Page 97 of WO09/049,851)
(§3) (Mixed Population, Drench Application in Field Soil, Persistence, Plant Damage Evaluation)
(§4) Samples are assessed 7 days after infestation on mortality. Treated plants are re-infested 7, 14, 21 and 28 days after application. Evaluation is always done 7 days after infestation. Plants are also checked for damage (phytotoxicity), visual assessment being made using a 0-100% rating scale (100%=total damage to plant; 0%=no damage to plant).

[15] = test system: pepper plants; conditions: in vivo
Procedure: as §2, §3, §4

[16] = test system: Aphis Craccivora (cowpea aphid); test: Example B9: activity against Aphis craccivora, sprayed pea seedlings (contact/feeding); format: in vivo; conditions: 144 h, infested pea seedlings sprayed, 6 days
Text: as §1
(Mixed Population, Contact/Feeding)
6 days after treatment, samples are checked for mortality.

[17] = test system: Aphis Craccivora (cowpea aphid); test: Example B16: activity against Aphis craccivora on broad bean plants, adjuvant effect, curative (EC050 spray); format: in vivo; conditions: 3 ppm, adjuvant (if any) 0.1% (v/v), 7 days after treatment
Procedure: One day after infestation, plants are treated with diluted test solutions of the compound formulated as EC050 in a spray chamber (4 replicates). Optionally, an adjuvant is added with 0.1% (v/v) to the spray solution. 7 days after treatment samples are checked for mortality. Efficacy was calculated with the aid of Abbott's formula.

Row | Structure (SMILES) | mortality at 400 ppm [1] | mortality at 400 ppm [2] | pest or weed control at 400 ppm [3] | pest or weed control at 200 ppm [4] | mortality at 400 ppm [5] | mortality at 400 ppm [6] | pest or weed control at 200 ppm [7] | mortality at 200 ppm [8] | mortality at 25 ppm [9] | mortality at 400 ppm [10] | mortality at 400 ppm [11] | mortality at 400 ppm [12] | mortality at 400 ppm [13] | mortality at 400 ppm [16] | further results
1 | CCOC(=O)OC1=C(c2c(C)cc(C)cc2C)C(=O)N(OC2CCCO2)C12CCN(OC)CC2 (stereo not drawn) [P1.9, Carbonic acid ethyl ester 8-methoxy-2-oxo-1-(tetrahydro-furan-2-yloxy)-3-(2,4,6-trimethyl-phenyl)-1,8-diaza-spiro[4.5]dec-3-en-4-yl ester] | > 80% | > 80% | > 80% | > 80% | > 80% | > 80% | > 80% | ≥ 80% | > 80% | > 80% | > 80% | > 80% | > 80% | – | –
2 | CCOC(=O)OC1=C(c2c(C)cc(C)cc2C)C(=O)N(O)C12CCN(OC)CC2 [P1.11, carbonic acid ethyl ester 1-hydroxy-8-methoxy-2-oxo-3-(2,4,6-trimethyl-phenyl)-1,8-diaza-spiro[4.5]dec-3-en-4-yl ester] | > 80% | > 80% | – | > 80% | > 80% | – | > 80% | ≥ 80% | > 80% | > 80% | > 80% | > 80% | > 80% | – | Mortality (%) xx days after application (drench, systemic action, persistence) ([14]; infestation 0 days after application): 97%; Mortality (%) xx days after application (drench, systemic action, persistence) ([14]; re-infestation 7 days after application): 95%; Mortality (%) xx days after application (drench, systemic action, persistence) ([14]; re-infestation 14 days after application): 95%; Mortality (%) xx days after application (drench, systemic action, persistence) ([14]; re-infestation 21 days after application): 100%; Mortality (%) xx days after application (drench, systemic action, persistence) ([14]; re-infestation 28 days after application): 100%; insecticidal action on Myzus persicae compared with state-of-the-art compound A18 (in words) ([14]; drench application on pepper plants, summary of Table B15): very similar to the action of the compound of the state of the art; plant damage on pepper plants / plant compatibility (in words) [15]: no plant damage at all
3 | CCOC(=O)OC1=C(c2c(C)cc(C)cc2C)C(=O)N(OCC)C12CCN(OC)CC2 [P1.15] | – | – | > 80% | > 80% | > 80% | > 80% | > 80% | ≥ 80% | > 80% | > 80% | > 80% | > 80% | > 80% | > 80% | Abbott's efficacy (%) against Aphis craccivora ([17]; Table B16a): 3%; Abbott's efficacy (%) against Aphis craccivora ([17]; Table B16b): 11%
4 | CCOC(=O)OC1=C(c2c(C)cc(Br)cc2C)C(=O)N(OCOC)C12CCN(OC)CC2 [P1.19] | – | > 80% | – | – | – | > 80% | > 80% | ≥ 80% | > 80% | > 80% | > 80% | > 80% | – | – | –
5 | COCON1C(=O)C(c2c(C)cc(C)cc2C)=C(O)C12CCN(OC)CC2 [P2.6, 4-hydroxy-8-methoxy-1-methoxymethoxy-3-(2,4,6-trimethyl-phenyl)-1,8-diaza-spiro[4.5]dec-3-en-2-one] | > 80% | > 80% | > 80% | > 80% | > 80% | > 80% | > 80% | ≥ 80% | > 80% | > 80% | > 80% | > 80% | – | > 80% | –
